For data set [1], the system named is OPM-2. Kind of data set: Antitumor activity against human OPM2 cells xenografted in SCID-beige mouse assessed as inhibition of tumor growth administered once daily orally for 28 days starting from 18 days post tumor inoculation. In kind it is functional, cell-based. A general note: A xenograft is tissue or cells of one species grown in another, often human tumour cells in immunodeficient mice.

Data set [2] relates to OPM-2. Kind of data set: Antitumor activity against human OPM2 cells xenografted in SCID-beige mouse assessed as inhibition of tumor growth at 3.75 mg/kg, po qd administered for 28 days starting from 18 days post tumor inoculation. In kind it is functional. To be noted: OPM-2, po, read-out: TGI.
Data set [3] has as its system Mus musculus. Description: Toxicity in human OPM2 cells xenografted SCID-beige mouse assessed as body weight loss at 3.75 mg/kg, po qd administered for 28 days starting from 18 days post tumor inoculation. To be noted: in vivo. It is filed as organism-based.
For data set [4], the system named is Mus musculus. Kind of data set: Toxicity in human OPM2 cells xenografted SCID-beige mouse assessed as body weight loss at 7.5 mg/kg, po qd administered for 28 days starting from 18 days post tumor inoculation. To be noted: in vivo. It is filed as organism-based.
Data set [5] deals with OPM-2. Description: Antitumor activity against human OPM2 cells xenografted in SCID-beige mouse assessed as inhibition of tumor growth at 7.5 mg/kg, po qd administered for 28 days starting from 18 days post tumor inoculation. In kind it is functional. The note with it: OPM-2, po, read-out: TGI.
The nature of data set [6]: AUC in mouse at 10 mg/kg, po. It is filed as ADME, organism-based. The note with it: in vivo.
Data set [7] has as its target T1, E3 ubiquitin-protein ligase TRIM33 (Homo sapiens) (UniProt Q9UPN9).
T1 sequence (whole entry): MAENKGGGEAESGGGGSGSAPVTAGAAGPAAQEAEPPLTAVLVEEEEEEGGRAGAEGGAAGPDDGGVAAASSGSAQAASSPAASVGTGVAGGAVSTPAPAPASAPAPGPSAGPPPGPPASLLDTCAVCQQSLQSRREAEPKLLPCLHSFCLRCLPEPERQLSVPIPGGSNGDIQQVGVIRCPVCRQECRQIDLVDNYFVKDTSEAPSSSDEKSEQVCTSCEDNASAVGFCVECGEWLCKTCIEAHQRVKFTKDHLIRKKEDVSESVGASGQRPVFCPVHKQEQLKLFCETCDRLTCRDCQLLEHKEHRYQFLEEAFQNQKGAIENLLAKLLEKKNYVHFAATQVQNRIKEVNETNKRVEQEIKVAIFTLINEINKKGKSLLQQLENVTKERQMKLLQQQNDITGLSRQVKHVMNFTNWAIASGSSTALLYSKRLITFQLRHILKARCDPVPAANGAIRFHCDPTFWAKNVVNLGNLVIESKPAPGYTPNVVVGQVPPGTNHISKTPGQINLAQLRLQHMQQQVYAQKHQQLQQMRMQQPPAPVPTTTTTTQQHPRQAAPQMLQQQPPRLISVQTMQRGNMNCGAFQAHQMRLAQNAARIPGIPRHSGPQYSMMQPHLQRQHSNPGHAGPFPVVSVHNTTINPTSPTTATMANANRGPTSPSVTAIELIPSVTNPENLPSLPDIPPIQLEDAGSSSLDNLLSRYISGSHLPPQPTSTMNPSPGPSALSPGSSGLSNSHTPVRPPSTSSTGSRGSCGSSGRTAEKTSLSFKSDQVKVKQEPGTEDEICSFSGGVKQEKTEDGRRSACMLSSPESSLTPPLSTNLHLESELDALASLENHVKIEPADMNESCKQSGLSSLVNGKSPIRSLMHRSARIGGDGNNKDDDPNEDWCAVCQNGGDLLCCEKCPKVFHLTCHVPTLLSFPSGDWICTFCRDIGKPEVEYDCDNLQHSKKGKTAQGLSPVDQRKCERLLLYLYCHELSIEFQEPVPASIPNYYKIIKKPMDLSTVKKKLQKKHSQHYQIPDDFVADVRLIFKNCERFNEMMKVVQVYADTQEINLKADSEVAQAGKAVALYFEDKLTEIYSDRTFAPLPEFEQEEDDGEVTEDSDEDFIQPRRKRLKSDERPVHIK
Description: Binding affinity to human TRIM33-phd-bromo expressed in bacterial system assessed as remaining binding level at 1 uM by BROMOscan assay relative to control.

The target in data set [8] is T2, Bromodomain and PHD finger-containing protein 3 (Homo sapiens) (UniProt Q9ULD4).
T2 sequence (whole entry): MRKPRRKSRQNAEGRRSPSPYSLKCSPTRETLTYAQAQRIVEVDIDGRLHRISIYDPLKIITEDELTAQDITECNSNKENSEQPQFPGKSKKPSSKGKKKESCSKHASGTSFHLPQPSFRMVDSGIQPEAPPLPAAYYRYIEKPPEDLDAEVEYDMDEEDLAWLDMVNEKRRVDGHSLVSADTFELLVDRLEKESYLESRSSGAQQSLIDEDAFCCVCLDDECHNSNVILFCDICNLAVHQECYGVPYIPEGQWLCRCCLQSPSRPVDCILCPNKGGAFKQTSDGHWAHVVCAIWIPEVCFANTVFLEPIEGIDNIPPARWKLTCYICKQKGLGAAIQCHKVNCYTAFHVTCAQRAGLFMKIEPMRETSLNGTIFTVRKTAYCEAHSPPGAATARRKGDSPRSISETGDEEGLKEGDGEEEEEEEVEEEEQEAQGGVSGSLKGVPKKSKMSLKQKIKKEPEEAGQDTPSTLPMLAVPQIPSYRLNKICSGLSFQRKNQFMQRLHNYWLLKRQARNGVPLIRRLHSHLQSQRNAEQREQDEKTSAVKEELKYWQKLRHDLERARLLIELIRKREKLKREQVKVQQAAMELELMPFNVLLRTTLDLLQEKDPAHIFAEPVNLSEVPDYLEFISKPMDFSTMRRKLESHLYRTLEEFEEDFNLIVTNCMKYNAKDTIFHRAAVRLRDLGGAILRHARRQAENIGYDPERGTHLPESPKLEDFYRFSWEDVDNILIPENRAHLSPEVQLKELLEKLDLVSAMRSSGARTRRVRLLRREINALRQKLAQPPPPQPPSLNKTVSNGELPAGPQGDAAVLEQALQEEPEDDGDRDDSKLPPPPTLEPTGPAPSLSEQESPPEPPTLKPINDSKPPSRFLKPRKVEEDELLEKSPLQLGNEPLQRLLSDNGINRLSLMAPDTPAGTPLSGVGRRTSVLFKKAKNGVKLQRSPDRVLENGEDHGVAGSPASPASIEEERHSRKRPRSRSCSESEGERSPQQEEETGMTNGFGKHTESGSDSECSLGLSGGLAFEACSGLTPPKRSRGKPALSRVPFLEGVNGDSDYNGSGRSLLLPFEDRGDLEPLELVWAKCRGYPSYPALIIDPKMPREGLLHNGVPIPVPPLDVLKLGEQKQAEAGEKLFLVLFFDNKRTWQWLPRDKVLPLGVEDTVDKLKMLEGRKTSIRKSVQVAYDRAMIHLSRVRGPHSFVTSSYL
Description: Binding affinity to human BRPF3 expressed in bacterial system assessed as remaining binding level at 1 uM by BROMOscan assay relative to control.

The nature of data set [9]: Oral bioavailability in mouse at 10 mg/kg. In kind it is ADME, organism-based. To be noted: in vivo.
Data set [10] relates to Mus musculus. Description: Toxicity in human OPM2 cells xenografted SCID-beige mouse assessed as body weight loss at 0.31 mg/kg, po qd administered for 28 days starting from 18 days post tumor inoculation. It is filed as organism-based. The note with it: in vivo.
The test system of data set [11] is OPM-2. Description: Antitumor activity against human OPM2 cells xenografted in SCID-beige mouse assessed as inhibition of tumor growth at 0.62 mg/kg, po qd administered for 28 days starting from 18 days post tumor inoculation. In kind it is functional. To be noted: OPM-2, po, read-out: TGI.

As usually defined, the AUC is concentration integrated over time. Low readings indicate low exposure, high ones high exposure. Broadly, the bioavailability is the share of a dose that reaches the circulation, judged against a reference dose that is usually intravenous. A higher bioavailability goes with much systemic uptake.

In the case of `Cn1cc2c3c(c[nH]c(=O)c31)-c1cc(CS(C)(=O)=O)ccc1N(c1ccc(F)cc1)C2`, the TGI result in the data set with OPM-2 [1] is “Dose-dependent effect”. Besides, the inhibition in vivo at 3.75 mg/kg in the data set with OPM-2 [2] turned out to be 68%. The Activity was found to be 10% in the data set on Mus musculus [3], 9% with Mus musculus [4], 100% in [7] and 100% in data set [8]. Further, the inhibition in vivo at 7.5 mg/kg with OPM-2 [5] was determined as 84%. In addition, the exposure (AUC) in data set [6] came out at 2.8 µM·h. In addition, the bioavailability in data set [9] was 34%.

Turning to `Cn1cc2c3c(c[nH]c3c1=O)CN(c1ccccn1)c1ccc(CS(C)(=O)=O)cc1-2`, the TGI result in the data set with OPM-2 [1] is “Dose-dependent effect”. The Activity turned out to be 0% in the data set with Mus musculus [10], 83% in data set [7] and 94% in data set [8]. Besides, the inhibition in vivo at 0.62 mg/kg with OPM-2 [11] was determined as 94%. Further, in data set [9], the bioavailability came to 32%.

In the case of `Cn1cc2c3c(c[nH]c3c1=O)CN(c1ccc(F)cc1F)c1ccc(CS(C)(=O)=O)cc1-2`, the AUC in data set [6] was determined as 12 µM·h. Moreover, the Activity in [7] is 85%; in data set [8], 88%. The compound also gave a bioavailability in data set [9] of 93%.
